Test results reported in US8324172B2, “G protein coupled receptor agonists and antagonists and methods of activating and inhibiting G protein coupled receptors using the same” (Tufts Medical Center, Inc., priority 2000, dated 2012).
Where a chain is given by its changes, count along the chain named. “Also recorded” adds a separate entry of the source. Where a SMILES comes first, the peptide text is derived from it. Where no end group is shown, it is not given here. The star is where a group is joined. Palmitoyl = CCCCCCCCCCCCCCCC(=O)*

Experiments:
MC4R = biological target: T1, MC4R (Homo sapiens, UniProt P32245); assay: Adenylate cyclase activity in COS7 fibroblasts transfected with MC4R; format: cell-based
T1 construct: expressed in transfected cells; host or cells: COS7, transient

PAR4 = biological target: T2, PAR4 (Homo sapiens, UniProt Q96RI0); assay: InsP formation in COS7 cells expressing PAR4; format: cell-based; design: expressed in transfected cells; host or cells: COS7, transient; conditions: COS7 cells
T2 sequence (Q96RI0 18-385): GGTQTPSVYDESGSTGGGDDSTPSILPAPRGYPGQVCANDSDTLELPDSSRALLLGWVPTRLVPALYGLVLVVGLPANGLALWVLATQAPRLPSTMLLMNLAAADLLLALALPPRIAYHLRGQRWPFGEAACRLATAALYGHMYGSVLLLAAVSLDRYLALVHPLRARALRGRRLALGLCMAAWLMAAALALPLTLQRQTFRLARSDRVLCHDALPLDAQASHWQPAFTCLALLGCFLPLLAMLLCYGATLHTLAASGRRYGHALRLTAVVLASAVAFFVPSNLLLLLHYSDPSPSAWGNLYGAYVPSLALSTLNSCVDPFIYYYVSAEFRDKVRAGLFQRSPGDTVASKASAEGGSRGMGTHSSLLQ

[1] = biological target: T3, somatostatin receptor (SSTR2) (Rattus norvegicus, UniProt P30680); assay: InsP formation in COS7 cells expressing SSTR2; format: cell-based; conditions: COS7 cells
T3 construct: expressed in transfected cells; host or cells: COS7, transient

substance P (Sub-P) = biological target: T4, substance P (Sub-P) (Homo sapiens, UniProt P25103); assay: InsP formation in COS7 cells expressing substance P receptor; format: cell-based
T4 construct: expressed in transfected cells; host or cells: COS7, transient

PAR1 [2] = biological target: T5, PAR1 (Homo sapiens, UniProt P25116); assay: InsP formation (PLC-β) in Rat1 fibroblasts expressing human PAR1; format: cell-based
T5 construct: expressed in transfected cells
T5 sequence (P25116 22-425): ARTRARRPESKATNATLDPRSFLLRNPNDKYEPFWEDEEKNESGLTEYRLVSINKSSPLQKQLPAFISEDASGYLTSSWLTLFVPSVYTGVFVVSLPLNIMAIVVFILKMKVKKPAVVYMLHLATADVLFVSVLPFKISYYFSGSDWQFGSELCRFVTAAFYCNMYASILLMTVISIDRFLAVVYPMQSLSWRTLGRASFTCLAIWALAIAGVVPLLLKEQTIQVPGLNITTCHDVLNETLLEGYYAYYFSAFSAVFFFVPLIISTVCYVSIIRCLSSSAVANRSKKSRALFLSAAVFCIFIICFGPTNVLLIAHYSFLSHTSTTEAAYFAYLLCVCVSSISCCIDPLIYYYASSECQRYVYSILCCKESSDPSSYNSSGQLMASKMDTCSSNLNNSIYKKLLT

cholecystokinin A (CCKA) = biological target: T6, cholecystokinin A (CCKA) (Homo sapiens, UniProt P32238); assay: InsP formation in COS7 cells expressing CCKA; format: cell-based
T6 construct: expressed in transfected cells; host or cells: COS7, transient
T6 sequence (P32238 1-428): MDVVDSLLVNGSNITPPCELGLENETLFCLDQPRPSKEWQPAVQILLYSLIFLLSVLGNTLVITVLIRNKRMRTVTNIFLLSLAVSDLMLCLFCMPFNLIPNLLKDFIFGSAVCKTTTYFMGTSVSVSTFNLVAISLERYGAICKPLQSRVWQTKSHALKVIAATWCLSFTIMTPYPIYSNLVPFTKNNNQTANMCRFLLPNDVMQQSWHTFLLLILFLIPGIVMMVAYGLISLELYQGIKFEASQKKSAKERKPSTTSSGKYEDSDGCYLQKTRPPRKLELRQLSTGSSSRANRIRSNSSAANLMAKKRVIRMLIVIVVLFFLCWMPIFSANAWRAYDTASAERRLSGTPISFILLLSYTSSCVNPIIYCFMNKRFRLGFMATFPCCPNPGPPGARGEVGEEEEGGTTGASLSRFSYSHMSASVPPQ

PAR2 = biological target: T7, PAR2 (Homo sapiens, UniProt P55085); assay: InsP formation in COS7 cells expressing PAR2; format: cell-based; conditions: 0.1-10 micromolar pepducin
T7 construct: expressed in transfected cells; host or cells: COS7 (transient)
T7 sequence (P55085 26-397): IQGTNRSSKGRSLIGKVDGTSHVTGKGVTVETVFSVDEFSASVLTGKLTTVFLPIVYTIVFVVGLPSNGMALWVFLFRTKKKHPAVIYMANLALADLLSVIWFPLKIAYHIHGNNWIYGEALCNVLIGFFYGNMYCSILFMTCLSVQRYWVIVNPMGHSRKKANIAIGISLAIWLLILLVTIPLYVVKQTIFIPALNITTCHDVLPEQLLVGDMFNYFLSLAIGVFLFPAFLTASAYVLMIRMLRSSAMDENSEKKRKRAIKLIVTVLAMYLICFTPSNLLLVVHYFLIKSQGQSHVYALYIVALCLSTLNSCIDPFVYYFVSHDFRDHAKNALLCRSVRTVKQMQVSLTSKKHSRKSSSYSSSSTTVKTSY

[3] = system: untransfected Rat1 cells / COS7 cells without PAR1; assay: InsP formation in COS7 cells or Rat1 fibroblasts in the absence of the PAR1 receptor; format: cell-based; conditions: for InsP stimulation in the absence of the PAR1 receptor: COS7 cells or Rat1 fibroblasts
cholecystokinin B (CCKB) = biological target: T8, cholecystokinin B (CCKB) (Homo sapiens, UniProt P32239); assay: InsP formation in COS7 cells expressing CCKB; format: cell-based
T8 construct: expressed in transfected cells; host or cells: COS7, transient
T8 sequence (P32239 1-447): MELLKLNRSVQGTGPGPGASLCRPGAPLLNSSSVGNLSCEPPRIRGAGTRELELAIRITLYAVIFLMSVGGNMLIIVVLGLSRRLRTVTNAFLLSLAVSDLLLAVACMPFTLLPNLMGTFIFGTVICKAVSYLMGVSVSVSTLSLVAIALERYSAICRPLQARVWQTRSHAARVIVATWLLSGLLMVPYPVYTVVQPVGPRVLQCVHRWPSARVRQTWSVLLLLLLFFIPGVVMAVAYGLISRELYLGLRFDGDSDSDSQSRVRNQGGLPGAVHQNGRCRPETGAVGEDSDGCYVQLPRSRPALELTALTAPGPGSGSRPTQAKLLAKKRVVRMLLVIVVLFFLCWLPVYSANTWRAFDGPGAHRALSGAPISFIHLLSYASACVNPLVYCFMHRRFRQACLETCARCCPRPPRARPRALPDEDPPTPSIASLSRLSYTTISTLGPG

PAR1 [4] = biological target: T5, PAR1; assay: Inhibition of PAR1-dependent platelet Ca2+ signal; format: cell-based; conditions: SFLLRN (or thrombin) after peptide pre-treatment
Procedure: Platelet Ca2+ measurements were performed as in Example 1.
The integrated Ca^2+ response for the individual treatments are relative to the full Ca^2+ responses for each agonist (100%) recorded in the absence of P4pal-10 (top trace).

S309P PAR1 = biological target: T9, S309P PAR1 (Homo sapiens, UniProt P25116, S309P); assay: InsP formation in COS7 cells expressing S309P PAR1 mutant; format: cell-based; conditions: relative to wild type PAR1
T9 construct: expressed in transfected cells; host or cells: COS7, transient
T9 sequence (P25116 22-425 S309P): T5 sequence (P25116 22-425) with S288P

delta377 PAR1 = assay: InsP formation in COS7 cells expressing delta377 (C-tail deleted) PAR1 mutant; format: cell-based, human
platelets = assay: Platelet intracellular Ca2+, agonist activity of peptides
P2Y12 ADP receptor = biological target: T10, P2Y12 ADP receptor (Homo sapiens, UniProt Q9H244); assay: Irreversible aggregation of SFLLRN-activated human platelets (ADP autocrine response); format: cell-based; conditions: 3 μM SFLLRN
T10 construct: endogenous in cells; host or cells: gel-purified human platelets
Description: Recently, the P2Y12 adenosine diphosphate (ADP) receptor was cloned by three independent groups (Hollopeter et al., Nature 409:202 (2001); Zhang et al., J. Biol. Chem. 276:8605 (2001); and Takasaki et al., Mol. Pharmacol. 60:432 (2001)) and shown to be the long-sought after target of the thienopyridine drugs clopidogrel and ticlopidine (Gachet et al., Biochem Pharmacol 40:2683 (1990); Mills et al., Arterioscler Thromb 12:430 (1992)). […] P2Y12 plays such a critical role in thrombus formation because it can modulate the strength of platelet-platelet adhesive interactions via multiple receptors such as PAR1. Inputs from P2Y12 stabilize the critical transition point of platelet-platelet aggregates during the progression from early reversible GPIIb-IIIa-fibrinogen binding to the late phase of irreversible binding to fibrinogen.
Aggregometry was performed by light scattering.

T3 sequence (P30680 whole entry): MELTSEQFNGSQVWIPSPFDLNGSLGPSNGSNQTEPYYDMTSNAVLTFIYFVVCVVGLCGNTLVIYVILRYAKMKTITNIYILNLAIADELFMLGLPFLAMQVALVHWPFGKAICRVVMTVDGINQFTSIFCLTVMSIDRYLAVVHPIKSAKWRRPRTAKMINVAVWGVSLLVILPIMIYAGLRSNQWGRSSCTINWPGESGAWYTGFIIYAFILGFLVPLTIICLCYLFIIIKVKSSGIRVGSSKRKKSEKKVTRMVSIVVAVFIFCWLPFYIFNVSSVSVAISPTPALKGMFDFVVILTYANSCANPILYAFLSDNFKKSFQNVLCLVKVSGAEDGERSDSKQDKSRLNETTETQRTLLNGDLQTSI
T10 sequence (Q9H244 whole entry): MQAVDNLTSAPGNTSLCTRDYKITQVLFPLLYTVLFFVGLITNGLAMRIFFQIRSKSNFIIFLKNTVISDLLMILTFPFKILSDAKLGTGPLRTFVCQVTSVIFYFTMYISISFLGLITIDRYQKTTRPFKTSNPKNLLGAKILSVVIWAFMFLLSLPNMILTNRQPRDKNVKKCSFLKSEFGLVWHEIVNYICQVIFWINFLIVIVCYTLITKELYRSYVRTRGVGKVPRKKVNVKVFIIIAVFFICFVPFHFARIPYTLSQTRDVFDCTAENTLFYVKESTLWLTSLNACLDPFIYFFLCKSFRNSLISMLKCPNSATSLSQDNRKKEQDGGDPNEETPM
T4 sequence (P25103 whole entry): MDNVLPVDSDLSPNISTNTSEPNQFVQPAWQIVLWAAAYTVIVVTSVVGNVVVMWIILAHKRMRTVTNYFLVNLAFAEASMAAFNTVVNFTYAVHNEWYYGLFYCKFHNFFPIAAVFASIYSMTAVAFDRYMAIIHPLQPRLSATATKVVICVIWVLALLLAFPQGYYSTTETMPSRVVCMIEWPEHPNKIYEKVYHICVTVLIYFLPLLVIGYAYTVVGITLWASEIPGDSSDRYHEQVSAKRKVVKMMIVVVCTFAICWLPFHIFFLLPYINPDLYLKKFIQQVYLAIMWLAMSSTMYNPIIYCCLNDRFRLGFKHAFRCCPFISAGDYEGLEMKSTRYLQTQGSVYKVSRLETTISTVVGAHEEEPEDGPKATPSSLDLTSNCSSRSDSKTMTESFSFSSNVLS
T1 sequence (P32245 whole entry): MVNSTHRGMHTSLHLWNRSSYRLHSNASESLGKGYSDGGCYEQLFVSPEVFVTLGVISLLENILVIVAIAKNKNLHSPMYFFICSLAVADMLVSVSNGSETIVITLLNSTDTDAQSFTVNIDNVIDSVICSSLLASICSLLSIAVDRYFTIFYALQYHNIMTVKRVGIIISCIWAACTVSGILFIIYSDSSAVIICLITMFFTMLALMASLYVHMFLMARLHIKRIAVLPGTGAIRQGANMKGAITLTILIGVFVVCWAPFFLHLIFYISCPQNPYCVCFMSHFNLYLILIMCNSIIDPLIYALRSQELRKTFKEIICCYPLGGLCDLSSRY

Compound | activation of PAR4 (InsP) (PAR4) | activation of SSTR2 (InsP) [1] | activation of Sub-P receptor (InsP) (substance P (Sub-P)) | Agonist Efficacy (PAR1 [2]) | activation of CCKA (InsP) (cholecystokinin A (CCKA)) | activation of PAR2 (InsP) (PAR2) | InsP stimulation in the absence of the PAR1 receptor [3] | agonist activity in platelet aggregation (human platelets) | further results
CCCCCCCCCCCCCCCC(=O)N[C@H](C(=O)NCC(=O)N[C@@H](C)C(=O)N[C@H](C(=O)N[C@@H](CCCNC(=N)N)C(=O)N[C@@H](CCC(N)=O)C(=O)NCC(=O)N[C@@H](C)C(=O)N[C@@H](CC(N)=O)C(=O)N[C@@H](CCSC)C(=O)N[C@@H](CCCCN)C(=O)NCC(=O)N[C@@H](C)C(=O)N[C@H](C(N)=O)[C@@H](C)CC)[C@@H](C)CC)[C@@H](C)O [MC4pal-14] (Palmitoyl-TGAIRQGANMKGAI-NH2) | – | – | – | – | – | – | – | – | IC50 (MC4R; read-out: IC50, inhibitory phase): ~10 µM; stimulation of adenylate cyclase activity (efficacy) (MC4R; relative to alpha-MSH): 40%
CCCCCCCCCCCCCCCC(=O)N[C@@H](C)C(=O)N[C@H](C(=O)N[C@@H](C)C(=O)N[C@@H](CC(N)=O)C(=O)N[C@@H](CCCNC(=N)N)C(=O)N[C@@H](CO)C(=O)N[C@@H](CCCCN)C(=O)N[C@@H](CCCCN)C(=O)N[C@@H](CO)C(=O)N[C@@H](CCCNC(=N)N)C(=O)N[C@@H](C)C(=O)N[C@@H](CC(C)C)C(=O)N[C@@H](Cc1ccccc1)C(N)=O)C(C)C [Pepducin P1pal-13] (Palmitoyl-AVANRSKKSRALF-NH2) | did not activate | did not activate | did not activate | 60 − 88% | did not activate | did not activate | approximately 11% | – | activation of CCKB (InsP) (cholecystokinin B (CCKB); COS7 cells): did not activate
CCCCCCCCCCCCCCCC(=O)N[C@@H](CCCNC(=N)N)C(=O)N[C@@H](CS)C(=O)N[C@@H](CC(C)C)C(=O)N[C@@H](CO)C(=O)N[C@@H](CO)C(=O)N[C@@H](CO)C(=O)N[C@@H](C)C(=O)N[C@H](C(=O)N[C@@H](C)C(=O)N[C@@H](CC(N)=O)C(=O)N[C@@H](CCCNC(=N)N)C(=O)N[C@@H](CO)C(=O)N[C@@H](CCCCN)C(=O)N[C@@H](CCCCN)C(=O)N[C@@H](CO)C(=O)N[C@@H](CCCNC(=N)N)C(=O)N[C@@H](C)C(=O)N[C@@H](CC(C)C)C(=O)N[C@@H](Cc1ccccc1)C(N)=O)C(C)C [Pepducin P1pal-19] (Palmitoyl-RCLSSSAVANRSKKSRALF-NH2) | does not activate | does not activate | does not activate | 90 ± 2% | does not activate | robustly activate PAR2; also recorded: can fully activate | approximately 11% | fully activates platelet aggregation | inhibition of PAR1-dependent Ca2+ response (PAR1 [4]): completely inhibits the subsequent Ca^2+i response; loss of efficacy on S309P mutant (S309P PAR1): 4.3 fold; loss of potency on S309P mutant (S309P PAR1): 13 fold; stimulation of PLC-beta with delta377 PAR1 mutant (delta377 PAR1): effectively no stimulation of PLC-beta; agonist activity, platelet intracellular Ca2+ (platelets): causes a rapid Ca^2+i transient; EC50 (human platelets; read-out: EC50 of activation of platelet aggregation): 8 ± 3 µM; stimulation of untransfected Rat1 cells (Rat1 alone) ([3]; attributed to endogenous rat PAR1): minor stimulation; stimulation of CCKB, % of its maximal activity (cholecystokinin B (CCKB); maximum defined by 300 nM CCK-8): about 30%
Y12pal-24: pepducin based on the i3-loop of P2Y12; peptide KELYRS YVRTRGVGKVPRKKVNVF (SEQ ID NO:34) (KELYRSYVRTRGVGKVPRKKVNVF; also: palmitoyl lipid, position not given here) [Pepducin Y12pal-24] | – | – | – | – | – | – | – | no agonist activity | inhibition of irreversible platelet aggregation (P2Y12 ADP receptor; 0, 1, 3, or 10 μM pepducin): effective inhibitor of irreversible platelet aggregation; efficacy of inhibition compared with apyrase (P2Y12 ADP receptor; 10 μM pepducin): equivalent in efficacy as addition of saturating amounts of apyrase
